Consider twelve compounds from ChEMBL document CHEMBL1201862, “PubChem BioAssay data set” (2004).

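Each compound was tested at five concentrations against cells in 96-well plates for 48 hours. At the GI50, growth is halved.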 Activity calls are given as the source filed them. Cut-off read from the data, not from the text of the source: active = GI50 up to about 1.1 µM and inactive = higher.

Test in all cases: NCI tumour cell line growth inhibition, 48 h
In assay [1] the test system is LOX IMVI.
Assay [2] concerns CCRF-CEM.
For assay [3], the system named is A498.
For assay [4], the system named is NCI-H226.
The test system of assay [5] is CAKI-1.
Assay [6] concerns HCT-116.
In assay [7] the test system is MOLT-4.
Assay [8] has as its system NCI-H460.
Assay [9] deals with SNB-75.
Assay [10] has as its system SK-MEL-5.
The test system of assay [11] is M14.
Assay [12] relates to IGROV-1.
Assay [13] deals with SF-539.
Assay [14] deals with RXF 393.
For assay [15], the system named is U-251.
Assay [16] has as its system OVCAR-4.
Assay [17] has as its system SK-MEL-2.
In assay [18] the test system is OVCAR-8.

Regarding `CC(=O)c1cccc(NC(=O)C(=O)C(C2OC(=O)c3ccccc32)[N+](=O)[O-])c1` (stereo not given), the GI50 in assay [1], in [2], in assay [3], in assay [4], in assay [5] and in assay [6] was > 100 µM (inactive) throughout. The GI50 in [7], in [8], in assay [9], in [10], in assay [11] and in assay [12] was > 100 µM (inactive) each time. Moreover, the GI50 in assay [13], in assay [14], in assay [15], in [16] and in assay [17] was > 100 µM (inactive) throughout.

Regarding `Cc1ccc2[nH]c(=O)c(C(C#N)c3ccccc3)nc2c1` (stereo not given), the GI50 in assay [1] is 34.4 µM (inactive); in [2], 32.7 µM (inactive); in [3], > 100 µM (inactive); in [4] it was 30.1 µM (inactive); in [5], 34.6 µM (inactive); in assay [6], 33.7 µM (inactive). Moreover, the GI50 was 20.9 µM (inactive) in assay [7]; 72.3 µM (inactive) in assay [8]; 30.5 µM (inactive) in [9]; 19 µM (inactive) in assay [10]; 41.8 µM (inactive) in assay [11]; 34.2 µM (inactive) in [12]. For the same compound, the GI50 was 46.7 µM (inactive) in assay [13]; 23 µM (inactive) in [14]; 24.3 µM (inactive) in assay [15]; 30.1 µM (inactive) in [16]; 20 µM (inactive) in assay [17].

Consider `O=C(CSc1nnc(-c2ccc(/N=C\c3ccc(Cl)cc3)cc2)o1)Nc1cccc(Cl)c1`, for which the GI50 in assay [1], in assay [2], in assay [18], in assay [4], in assay [6] and in [7] was > 100 µM (inactive) each time. The GI50 in assay [8] is > 100 µM (inactive); in [9], > 100 µM (inactive); in assay [10] it was > 100 µM (inactive); in assay [11], > 100 µM (inactive); in assay [14] it was 80.5 µM (inactive); in [15], > 100 µM (inactive). Besides, the GI50 in [16] and in assay [17] was > 100 µM (inactive) each time.

On to `Cc1ccccc1N1C(=O)/C(=C/c2ccc(N(CCC#N)CCC#N)cc2)N=C1c1cc([N+](=O)[O-])ccc1Cl`, for which the GI50 in assay [2] was 48.6 µM (inactive); in assay [3], > 100 µM (inactive); in assay [4] it was > 100 µM (inactive); in assay [5], > 100 µM (inactive); in assay [7], 25.5 µM (inactive); in [8], > 100 µM (inactive). Also, the GI50 in assay [9] is > 100 µM (inactive); in assay [10] it was 38.5 µM (inactive); in [11], > 100 µM (inactive); in [12], > 100 µM (inactive); in assay [13], > 100 µM (inactive); in assay [15], 36 µM (inactive). Further, the GI50 in [16] and in assay [17] was > 100 µM (inactive) in each case.

For the compound `N#Cc1c(N)oc2cc3c(C#N)c(N)oc3cc12`, the GI50 in [1], in assay [2], in assay [18], in [5], in [7] and in [8] was > 100 µM (inactive) in each case. For the same compound, the GI50 in assay [9] is 83.6 µM (inactive); in assay [10], > 100 µM (inactive); in [11] it was > 100 µM (inactive); in [12], > 100 µM (inactive); in assay [13], > 100 µM (inactive); in [14] it was > 100 µM (inactive). Moreover, the GI50 in [15], in [16] and in assay [17] was > 100 µM (inactive) throughout.

On to `S=C(Nc1ccccc1)N(/N=C/C=C/c1ccccc1)c1nnc(-c2ccccc2)c(-c2ccccc2)n1`, for which the GI50 in assay [1] is 52.1 µM (inactive); in [2], 51.2 µM (inactive); in assay [3], 67.5 µM (inactive); in [18] it was > 100 µM (inactive); in assay [4], 24.3 µM (inactive); in assay [5], 50.7 µM (inactive). Besides, the GI50 was 32.3 µM (inactive) in assay [7]; 67.5 µM (inactive) in assay [8]; > 100 µM (inactive) in assay [9]; 30.8 µM (inactive) in [10]; 63.4 µM (inactive) in [11]; > 100 µM (inactive) in assay [12]. Also, the GI50 in assay [13] is 35.7 µM (inactive); in [14], 50.9 µM (inactive); in assay [15] it was > 100 µM (inactive); in assay [16], 30.5 µM (inactive); in [17], 56.8 µM (inactive).

Regarding `COC(=O)C1=C(O)c2cc(OC)c(OC)c(OC)c2C(c2ccc3c(c2)OCO3)[C@@H]1C(=O)OC` (stereo not given in full), the GI50 in [1] was 4.43 µM (inactive); in assay [2], 4.42 µM (inactive); in assay [3], 3.82 µM (inactive); in [18] it was 5.37 µM (inactive); in assay [4], 8.97 µM (inactive); in assay [5], 0.935 µM (active). Further, the GI50 was 4.36 µM (inactive) in assay [6]; 4.69 µM (inactive) in [7]; 5.47 µM (inactive) in assay [8]; 4.07 µM (inactive) in [9]; 3.03 µM (inactive) in [11]; 5.56 µM (inactive) in assay [12]. Besides, the GI50 in assay [13] is 2.18 µM (inactive); in [14], 2.29 µM (inactive); in [15], 3.66 µM (inactive); in assay [16], 6.49 µM (inactive); in [17] it was 7.48 µM (inactive).

In the case of `Cn1nc(-c2ccccc2)c(C(=O)/C=C/c2ccccc2)c(N2CCOCC2)c1=O`, the GI50 in [1] is 21.6 µM (inactive); in assay [2], 18.8 µM (inactive); in assay [3] it was 15.4 µM (inactive); in [18] it was 28.4 µM (inactive); in [6], 14.4 µM (inactive); in [7] it was 13.2 µM (inactive). Moreover, the GI50 in assay [8] is 22.9 µM (inactive); in assay [10], 16 µM (inactive); in assay [11], 20.9 µM (inactive); in assay [12], 23.4 µM (inactive); in [13], 15.9 µM (inactive); in assay [14], 12.6 µM (inactive). In addition, in assay [15], the GI50 was 15.4 µM (inactive).

As to `CCC1(N=[N+]=[N-])C(=O)c2ccccc2N(c2ccccc2)C1=O` (stereo not given), the GI50 in assay [1], in assay [2], in assay [3], in assay [18], in assay [5] and in assay [6] was > 100 µM (inactive) throughout. In addition, the GI50 in assay [7], in [8], in assay [9], in [10], in assay [11] and in assay [12] was > 100 µM (inactive) throughout. In addition, the GI50 in [13], in [15], in assay [16] and in assay [17] was > 100 µM (inactive) throughout.

As for `CCOC(=O)NC(=O)c1cn(CCN2CCN(C(=O)NCCCCCCNC(=O)N3CCN(CCn4cc(C(=O)NC(=O)OCC)c(=O)n(CCN(CC)CC)c4=O)CC3)CC2)c(=O)n(CCC(CC)CC)c1=O`, the GI50 in [1], in assay [3], in assay [18], in assay [6], in assay [8] and in assay [9] was > 100 µM (inactive) in each case. For the same compound, the GI50 in assay [10], in assay [11], in assay [12], in assay [13], in [14] and in assay [15] was > 100 µM (inactive) each time. The GI50 in assay [16] and in [17] was > 100 µM (inactive) throughout.

In the case of `OC1c2ccccc2C2C(O)c3ccccc3C12` (stereo not given), the GI50 in [1], in [2], in assay [18], in [5], in assay [7] and in assay [8] was > 100 µM (inactive) throughout. For the same compound, the GI50 in [9] was 89.5 µM (inactive); in assay [10] it was > 100 µM (inactive); in assay [11], > 100 µM (inactive); in assay [12] it was > 100 µM (inactive); in [13], > 100 µM (inactive); in assay [14], > 100 µM (inactive). The GI50 in assay [15], in assay [16] and in assay [17] was > 100 µM (inactive) in each case.

As to `O=[N+]([O-])c1cc(Cl)ccc1OCc1ccccc1`, the GI50 in [1] was 40.8 µM (inactive); in [2] it was 40.9 µM (inactive); in assay [3] it was > 100 µM (inactive); in assay [18] it was > 100 µM (inactive); in [6], 55.6 µM (inactive); in assay [7], 27.9 µM (inactive). Besides, the GI50 was 55.8 µM (inactive) in [8]; 20.6 µM (inactive) in [9]; 27.3 µM (inactive) in [10]; 83.6 µM (inactive) in [11]; > 100 µM (inactive) in assay [12]; 57.3 µM (inactive) in assay [13]. Also, the GI50 in assay [14] was 47.3 µM (inactive); in assay [15], 42.2 µM (inactive); in assay [16], > 100 µM (inactive); in assay [17] it was > 100 µM (inactive).
